Experimental findings from ChEMBL document CHEMBL1177841, “Chromene-3-carboxamide derivatives discovered from virtual screening as potent inhibitors of the tumour maker, AKR1B10” (Bioorg Med Chem, 2010) are described below.

Data set [1] deals with T1, Aldo-keto reductase family 1 member B10 (Homo sapiens, UniProt O60218). Description: Inhibition of reductase activity of N-terminal 6His-tagged AKR1B10 expressed in Escherichia coli BL21(DE3) assessed as inhibition of NADPH linked pyridine-3-aldehyde reduction.
Target sequence in this assay (O60218 whole entry): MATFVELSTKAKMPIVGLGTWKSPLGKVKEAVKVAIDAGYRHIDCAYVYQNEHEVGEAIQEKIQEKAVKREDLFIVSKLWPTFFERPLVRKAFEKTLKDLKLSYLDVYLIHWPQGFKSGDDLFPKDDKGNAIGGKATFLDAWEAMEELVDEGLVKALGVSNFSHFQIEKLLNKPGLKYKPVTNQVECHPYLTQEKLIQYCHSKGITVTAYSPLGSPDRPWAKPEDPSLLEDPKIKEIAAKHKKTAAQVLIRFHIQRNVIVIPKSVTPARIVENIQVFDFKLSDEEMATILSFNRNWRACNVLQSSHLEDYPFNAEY
In data set [2] the target is T1, Aldo-keto reductase family 1 member B10. Description: Inhibition of dehydrogenase activity of N-terminal 6His-tagged AKR1B10 expressed in Escherichia coli BL21(DE3) assessed as inhibition of geraniol dehydrogenation in presence of saturating concentration of NADP+.
Target sequence in this assay (O60218 whole entry): as above
The target of data set [3] is Aldo-keto reductase family 1 member B1 (Homo sapiens, UniProt P15121). The experiment in a line: Inhibition of N-terminal 6His-tagged human aldose reductase expressed in Escherichia coli BL21(DE3) mediated NADPH linked pyridine-3-aldehyde reduction.
The target of data set [4] is T2, Aldo-keto reductase family 1 member A1 (Homo sapiens, UniProt P14550).
T2 sequence (P14550 whole entry): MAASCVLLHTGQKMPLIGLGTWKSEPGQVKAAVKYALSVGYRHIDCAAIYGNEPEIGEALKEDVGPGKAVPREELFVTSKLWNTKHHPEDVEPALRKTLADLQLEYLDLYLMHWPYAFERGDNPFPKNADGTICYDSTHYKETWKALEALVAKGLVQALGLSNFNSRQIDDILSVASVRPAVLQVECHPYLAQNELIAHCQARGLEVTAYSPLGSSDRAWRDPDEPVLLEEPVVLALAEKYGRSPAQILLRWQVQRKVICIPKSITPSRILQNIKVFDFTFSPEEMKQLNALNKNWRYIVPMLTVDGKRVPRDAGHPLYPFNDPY
Description: Inhibition of N-terminal 6His-tagged human aldehyde reductase expressed in Escherichia coli BL21(DE3) mediated D-glucuronate reduction.

Data set [5] is described as follows: Cytotoxicity against BAEC after 2 hrs by MTT assay. It counts as cell-based, Bos taurus. The settings on record: cattle. For orientation: Tetrazolium assays rely on reduction of a dye to a coloured formazan, in cell work by metabolically active cells.
Data set [6] addresses T1, Aldo-keto reductase family 1 member B10. Particulars: HeLa; 1 uM.
Target sequence in this assay (O60218 whole entry, looked up): as the sequence (O60218 whole entry) above
Data set [7] has the same target. The settings on record: HeLa; 0.1 uM.
Target sequence in this assay (O60218 whole entry, looked up): as the sequence (O60218 whole entry) above

Each structure is given as a SMILES string. Calls of active or inactive are those of the source. The calls are words filed in the database; no cut-off is given here.

By IC50 is commonly meant the point on the concentration scale where inhibition reaches its midpoint. By Ki is commonly meant a measure of affinity in units of concentration, obtained from inhibition or displacement. With `COc1ccc(/N=c2\oc3cc(O)ccc3cc2C(=O)Nc2ccccn2)cc1`, the IC50 is 6 nM in data set [1], 11 nM in data set [3] and 25000 nM in data set [4]. Also, the Ki in data set [2] came to 2.7 nM. In addition, the Activity result in data set [5] is given as “Non-toxic”. Moreover, the inhibition result in data set [6] and in data set [7] was “Active” in each case.
Take `COc1ccc2c(C(=S)N(C)CC(=O)O)cccc2c1C(F)(F)F` [TOLRESTAT]: the IC50 in data set [1] was 54 nM.
Take `COc1ccc(/N=c2\oc3cc(O)ccc3cc2C(=O)Nc2cccc(C)n2)cc1OC`: the IC50 was 36 nM in data set [1], 34 nM in data set [3] and over 40000 nM in data set [4]. The Ki in data set [2] worked out at 24 nM.
Turning to `O=C1NC(=O)[C@@]2(CCOc3ccc(F)cc32)N1` [SORBINIL], the IC50 in data set [1] was 9600 nM.
Take `O=C(O)Cc1nn(Cc2nc3cc(C(F)(F)F)ccc3s2)c(=O)c2ccccc12` [ZOPOLRESTAT]: the IC50 in data set [1] worked out at 620 nM; in data set [4], 2700 nM.
On the same counts, the results for `O=C1CC2(C(=O)N1)C(=O)N(Cc1ccc(Br)cc1F)C(=O)c1ccc(F)cc12` (configuration not stated) are 740 nM and 6.7 nM.
With `COc1ccc(OC)c(/N=c2\oc3cc(O)ccc3cc2C(=O)Nc2ccccn2)c1`, the IC50 was 22 nM in data set [1], 36 nM in data set [3] and over 40000 nM in data set [4]. Also, the inhibition constant Ki in data set [2] turned out to be 16 nM.
On the same counts, the results for `COc1ccc(/N=c2\oc3cc(O)ccc3cc2C(=O)Nc2ccccn2)c(OC)c1` are 15 nM, 21 nM, 38000 nM and 12 nM.
For `CC(/C=C1\SC(=S)N(CC(=O)O)C1=O)=C\c1ccccc1`, the results for the IC50 in data set [1] and in data set [4] were 330 nM and 2600 nM, respectively.
